Experimental data published in patent US20130303737A1, “TARGETED SCHIFF BASE COMPLEXES” (NORTHWESTERN UNIVERSITY, priority 2009, published 2013).

Columns and labels:
Slug [1] = biological target: T1, Slug (Xenopus laevis, UniProt Q91924); assay: In vivo assay: embryos injected with agent and Slug RNA, EMSA at blastula stage; settings: 10 fold excess (10 μM) injected
T1 construct: 5x myc; expressed in transfected cells; host or cells: Xenopus laevis embryos injected with in vitro transcribed mRNA; whole embryo lysate, stage 8 / blastula
T1 sequence (Q91924 1-266): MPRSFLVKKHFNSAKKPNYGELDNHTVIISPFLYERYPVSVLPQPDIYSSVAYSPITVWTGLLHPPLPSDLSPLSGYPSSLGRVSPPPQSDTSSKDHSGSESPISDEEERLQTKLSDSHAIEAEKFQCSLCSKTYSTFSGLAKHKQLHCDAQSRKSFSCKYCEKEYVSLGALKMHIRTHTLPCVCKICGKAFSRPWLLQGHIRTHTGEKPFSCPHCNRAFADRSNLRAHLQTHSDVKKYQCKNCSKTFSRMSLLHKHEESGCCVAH
Procedure: Pigmented and albino eggs were obtained and fertilized using standard protocol (Bellmeyer et al. (2003) Dev Cell 4(6):827-839, herein incorporated by reference in its entirety). All embryos are staged using the Niewenkoop-Faber method. Embryos were injected into one-cell at stage 1 in 0.4× modified ringer's (MR) solution with 3% Ficoll then transferred to 0.1×MR until harvesting. mRNA was transcribed in vitro using the SP6 Message Machine Kit (Ambion, Austin, Tex.). Concentrations of mRNA injected into one cell at the 2-cell stage range from 5-50 pg. XSip1 in the vector pCS2+ was obtained from A. Eisaki (Eisaki (2000) Biochem Biophys Res Commun 271(1):151-157, herein incorporated by reference in its entirety). cDNA was generated using PCR amplification and a high fidelity polymerase (Pfu; Roche, Indianapolis Ind.). cDNAs were cloned into a pCS2 variant that adds 5 myc tags to either the N- or C-terminus. All constructs were confirmed by sequencing using a ABI 3730 high-throughput DNA Sequencer.
For in vitro assays, whole embryo lysates were prepared by lysing 5 stage 8 embryos in 100 μL of lysis buffer (1×PBS, 1% NP-40 and Complete protease inhibitor cocktail tablets; Roche, Indianapolis, Ind.). […]

Lef-1 = biological target: T2, Lef-1 (Homo sapiens, UniProt Q9UJU2); assay: EMSA, inhibition of Lef-1 DNA-binding in embryo lysates; assay type: biochemical, Xenopus laevis; settings: high concentrations (150 μM per FIG. 4 legend)
T2 construct: 5x myc; expressed in transfected cells; host or cells: Xenopus laevis embryos injected with in vitro transcribed mRNA; whole embryo lysate
Procedure: (§1) (A) Lysates of blastula stage embryos (lane 1) or embryos with overexpressed Slug protein (lanes 2-6) were incubated with increasing concentrations of Co(III)-Ebox of 0, 0.01, 0.1 and 1 μM for 15 min prior to challenge with a ^32P-labeled Ebox containing Slug DNA probe for 30 min. (B) Lysates of blastula stage embryos injected with Slug, Snail or Sip1 mRNA (lanes 1-9) or Slug, p105, MitF and Lef-1 mRNA (lanes 10-21) were incubated with 0 or 1 μM Co(III)-Ebox for 15 min prior to challenge with ^32P-labeled Slug probe for 30 min and analyzed by EMSA on a native gel. […] Samples were analyzed by EMSA on a native TBE/acrylamide gel.
(§2) Lysates of blastula stage embryos injected with Slug mRNA were incubated with increasing concentrations of Co(1II)-Schiff base of 0, 1.5, 5, 15, 50, 150 and 500 μM (lanes 2-8) for 15 min, then incubated with ^32P-labeled Slug probe for 30 min and visualized by EMSA. Lysates of embryos injected with Slug (lanes 10 and 11), p105 (lanes 13 and 14), MitF (lanes 16 and 17) or Lef-1 (lanes 19 and 20) mRNA were incubated with 0 or 150 μM Co(1II)-Schiff base for 15 min and labeled with ^32P-labeled Slug probe for 30 min. Uninjected embryos are presented in lanes 1, 9, 12, I5 and 18. Samples were separated by EMSA. […]

p105 = biological target: T3, p105 (Homo sapiens, UniProt P19838); assay: EMSA, inhibition of p105 DNA-binding in embryo lysates; assay type: biochemical, Xenopus laevis; settings: high concentrations (150 μM per FIG. 4 legend)
T3 construct: 5x myc; expressed in transfected cells; host or cells: Xenopus laevis embryos injected with in vitro transcribed mRNA; whole embryo lysate
T3 sequence (P19838 1-968): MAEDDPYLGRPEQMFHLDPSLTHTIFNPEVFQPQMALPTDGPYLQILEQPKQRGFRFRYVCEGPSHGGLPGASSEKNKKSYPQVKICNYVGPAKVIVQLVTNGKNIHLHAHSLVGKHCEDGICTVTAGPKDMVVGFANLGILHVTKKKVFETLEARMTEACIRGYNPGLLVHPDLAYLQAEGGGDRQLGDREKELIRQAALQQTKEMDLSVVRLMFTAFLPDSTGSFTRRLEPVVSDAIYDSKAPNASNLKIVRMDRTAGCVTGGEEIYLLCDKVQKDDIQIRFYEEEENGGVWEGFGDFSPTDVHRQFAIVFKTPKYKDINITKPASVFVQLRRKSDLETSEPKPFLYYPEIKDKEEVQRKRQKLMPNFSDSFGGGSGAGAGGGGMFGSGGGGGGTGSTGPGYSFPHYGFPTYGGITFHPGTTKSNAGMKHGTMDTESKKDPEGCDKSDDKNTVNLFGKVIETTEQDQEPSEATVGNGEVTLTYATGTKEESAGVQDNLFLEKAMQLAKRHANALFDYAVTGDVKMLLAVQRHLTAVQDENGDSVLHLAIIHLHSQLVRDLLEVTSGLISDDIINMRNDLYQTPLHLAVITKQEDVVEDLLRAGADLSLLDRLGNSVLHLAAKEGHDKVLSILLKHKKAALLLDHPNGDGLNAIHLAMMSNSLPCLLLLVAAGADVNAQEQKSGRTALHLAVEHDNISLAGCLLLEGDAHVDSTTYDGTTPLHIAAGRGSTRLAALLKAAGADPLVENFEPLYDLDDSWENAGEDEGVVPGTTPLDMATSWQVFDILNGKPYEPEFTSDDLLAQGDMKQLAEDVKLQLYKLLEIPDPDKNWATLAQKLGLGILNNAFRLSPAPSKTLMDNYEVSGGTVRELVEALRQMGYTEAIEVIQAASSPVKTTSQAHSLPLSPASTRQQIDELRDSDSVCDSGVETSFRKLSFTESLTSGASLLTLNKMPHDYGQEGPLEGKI
Procedure: as §1, §2

Slug [2] = biological target: T1, Slug; assay: EMSA, inhibition of Slug DNA-binding in embryo lysates; assay type: biochemical; settings: relative to Co(III)-Ebox at 1 μM
Procedure: as §1, §2

Snail = assay: E-cadherin promoter firefly luciferase reporter (Snail transcriptional repression); assay type: cell-based; settings: MDA-MB-231 cells, up to 250 nM
Procedure: MDA-MB-231 metastatic breast cancer cells express Snail1 in the nucleus. A firefly luciferase plasmid with the E-cadherin promoter region was added upstream of the transcriptional start site Snail (SEE FIG. 7A). Binding of Snail to the E-boxes thereby repress luciferase transcription and therefore luciferase activity.

T2 sequence (Q9UJU2 whole entry, species assumed): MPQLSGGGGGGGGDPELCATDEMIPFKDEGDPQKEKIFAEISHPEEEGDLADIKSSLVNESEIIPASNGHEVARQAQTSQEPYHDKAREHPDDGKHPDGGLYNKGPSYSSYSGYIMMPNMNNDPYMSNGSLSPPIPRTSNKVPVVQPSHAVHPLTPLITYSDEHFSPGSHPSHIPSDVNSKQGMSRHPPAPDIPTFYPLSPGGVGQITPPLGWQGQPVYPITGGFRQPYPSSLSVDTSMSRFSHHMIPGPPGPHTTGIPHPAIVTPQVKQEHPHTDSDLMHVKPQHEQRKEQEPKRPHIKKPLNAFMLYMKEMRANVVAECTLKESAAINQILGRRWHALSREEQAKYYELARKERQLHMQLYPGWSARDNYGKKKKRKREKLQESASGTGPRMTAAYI

## [Co(III)(heptanoic acido)(acacen)(NH3)2]Cl [Co(III)-Schiff base]
Slug [1]
  Inhibition of Slug function (DNA-binding) after injection in vivo: not inhibited
Lef-1
  Inhibition of Lef-1 DNA-binding: inhibited
p105
  Inhibition of p105 DNA-binding: inhibited
Slug [2]
  Excess required to achieve inhibition of Slug comparable to Co(III)-Ebox at 1 μM: 150 fold
Snail
  Luciferase activity of E-cadherin promoter construct (Snail transcriptional activity): did not affect
